This note sets out measurements from patent US10035804B2, “Spirodiamine derivatives as aldosterone synthase inhibitors” (Hoffmann-La Roche Inc., priority 2014, dated 2018).

The target in one test is human CYP11B1 (Homo sapiens (Human), UniProt P15538). Kind of test: G-402 cellular enzyme assay, human CYP11B1 (cortisol release). The format is cell-based. The settings on record: G-402 cells expressing human CYP11B1; 1 μM Deoxycortisol; cortisol in supernatant after 16 h. The text has this: (§1) Herein we identified the use of the G-402 cell line as a host cell to ectopically express (transiently or stably) enzymes of the CYP11 family. Specifically we developed stable G-402 cells expressing ectopically human CYP11B1, human CYP11B2, human CYP11A1, cynmolgus CYP11B1 or cynomolgus CYP11B2 enzyme activity. Importantly the identified cell line G-402 expresses co-factors (adrenodoxin and adrenodoxin reductase) important for the activity of the CYP11 family and no relevant enzyme activity of the CYP11 family (in comparison to H295R cells) was detected in these cells. Therefore the G-402 cell line is uniquely suited as a host cell for the ectopic expression of enzymes from the CYP11 family.
human CYP11B1, sequence (P15538 25-503): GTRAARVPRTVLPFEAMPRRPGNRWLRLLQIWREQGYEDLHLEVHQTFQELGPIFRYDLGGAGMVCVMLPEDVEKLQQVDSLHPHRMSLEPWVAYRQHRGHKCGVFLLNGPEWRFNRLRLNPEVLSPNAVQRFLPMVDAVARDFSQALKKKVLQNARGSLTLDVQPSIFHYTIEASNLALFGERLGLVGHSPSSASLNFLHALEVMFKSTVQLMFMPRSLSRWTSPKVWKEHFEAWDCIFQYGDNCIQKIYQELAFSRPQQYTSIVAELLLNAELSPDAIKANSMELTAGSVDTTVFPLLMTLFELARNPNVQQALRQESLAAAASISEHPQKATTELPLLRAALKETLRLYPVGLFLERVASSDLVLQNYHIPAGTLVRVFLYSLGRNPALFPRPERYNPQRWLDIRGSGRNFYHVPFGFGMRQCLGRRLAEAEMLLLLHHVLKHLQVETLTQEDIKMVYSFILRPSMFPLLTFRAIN
(§2) G-402 cells can be obtained from ATCC (CRL-1440) and were originally derived from a renal leiomyoblastoma.
(§3) The expression plasmids contains the ORF for either human/cyno CYP11B1 or CYP11B2 under the control of a suitable promoter (CMV-promoter) and a suitable resistance marker (neomycin). Using standard techniques the expression plasmid is transfected into G-402 cells and these cells are then selected for expressing the given resistance markers. Individual cell-clones are then selected and assessed for displaying the desired enzymatic activity using 11-Deoxycorticosterone (Cyp11B2) or 11-Deoxycortisol (Cyp11B1) as a substrate.
(§4) G-402 cells expressing CYP11 constructs were established as described above and maintained in McCoy's 5a Medium Modified, ATCC Catalog No. 30-2007 containing 10% FCS and 400 μg/ml G418 (Geneticin) at 37° C. under an atmosphere of 5% CO2/95% air. Cellular enzyme assays were performed in DMEM/F12 medium containing 2.5% charcoal treated FCS and appropriate concentration of substrate (0.3-10 uM 11-Deoxycorticosterone, 11-Deoxycortisol or Corticosterone). For assaying enzymatic activity, cells were plated onto 96 well plates and incubated for 16 h. An aliquot of the supernatant is then transferred and analyzed for the concentration of the expected product (Aldosterone for CYP11B2; Cortisol for CYP11B1). The concentrations of these steroids can be determined using HTRF assays from CisBio analyzing either Aldosterone or Cortisol.
(§5) Inhibition of the release of produced steroids can be used as a measure of the respective enzyme inhibition by test compounds added during the cellular enzyme assay. The dose dependent inhibition of enzymatic activity by a compound is calculated by means of plotting added inhibitor concentrations (x-axes) vs. measured steroid/product level (y-axes). The inhibition is then calculated by fitting the following 4-parameter sigmoidal function (Morgan-Mercer-Flodin (MMF) model) to the raw data points using the least squares method:
(§6) [formula] wherein, A is the maximum y value, B is the EC50 factor determined using XLFit, C is the minimum y value and D is the slope value.
(§7) EC50 values for compounds claimed herein were tested with the G402-based assay system described. Cyp11B2 enzyme activity was tested in presence of 1 μM Deoxycorticosterone and variable amounts of inhibitors; Cyp11B1 enzyme activity was tested in presence of 1 μM Deoxycortisol and variable amounts of inhibitors.

The target in another test is human CYP11B2 (Homo sapiens (Human), UniProt P19099). In words: G-402 cellular enzyme assay, human CYP11B2 (aldosterone release). The class given is cell-based. The settings on record: G-402 cells expressing human CYP11B2; 1 μM Deoxycorticosterone; aldosterone in supernatant after 16 h.
human CYP11B2, sequence (P19099 25-503): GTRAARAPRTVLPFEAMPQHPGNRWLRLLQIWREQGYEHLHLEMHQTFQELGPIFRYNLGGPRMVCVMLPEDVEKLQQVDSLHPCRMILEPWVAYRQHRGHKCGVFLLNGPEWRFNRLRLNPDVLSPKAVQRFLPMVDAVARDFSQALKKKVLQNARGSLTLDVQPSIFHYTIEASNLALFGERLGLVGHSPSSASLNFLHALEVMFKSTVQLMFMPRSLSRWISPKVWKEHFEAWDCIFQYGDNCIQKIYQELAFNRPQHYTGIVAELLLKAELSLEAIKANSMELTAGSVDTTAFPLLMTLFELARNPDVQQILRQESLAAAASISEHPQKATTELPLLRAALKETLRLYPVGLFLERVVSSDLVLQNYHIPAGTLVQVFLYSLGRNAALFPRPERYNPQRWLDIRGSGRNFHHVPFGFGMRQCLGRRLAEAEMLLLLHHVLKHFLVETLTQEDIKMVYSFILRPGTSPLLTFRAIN
Source text: as §1, §2, §3, §4, §5, §6, §7

Broadly, the EC50 is the concentration needed to bring the measured effect to its halfway point. A lower EC50 goes with greater potency. Turning to `COc1ccc2c(n1)C(C)(C)N(c1cncc(N3CC4(CN(C(=O)c5ccnn5C)C4)C3)c1)C2=O` [Example 17, 2-Methoxy-7,7-dimethyl-6-[5-[2-(2-methylpyrazole-3-carbonyl)-2,6-diazaspiro[3.3]heptan-6-yl]-3-pyridyl]pyrrolo[3,4-b]pyridin-5-one], the EC50 turned out to be 33200 pM at human CYP11B1 and 901 pM at human CYP11B2.

As to `CC1(C)c2cc(Cl)ccc2C(=O)N1c1cncc(N2CC3(CN(C(=O)c4cncnc4)C3)C2)c1` [Example 40, 5-Chloro-3,3-dimethyl-2-[5-[2-(pyrimidine-5-carbonyl)-2,6-diazaspiro[3.3]heptan-6-yl]-3-pyridyl]isoindolin-1-one], the EC50 at human CYP11B1 came to 12000 pM; at human CYP11B2 it was 54.2 pM.

Take `Cn1ccnc1C(=O)N1CC2(C1)CN(c1cncc(N3C(=O)c4ccc(C#N)cc4C3(C)C)c1)C2` [Example 11, 3,3-Dimethyl-2-[5-[2-(1-methylimidazole-2-carbonyl)-2,6-diazaspiro[3.3]heptan-6-yl]-3-pyridyl]-1-oxo-isoindoline-5-carbonitrile]: the EC50 stood at 4760 pM on human CYP11B1 and 25.2 pM at human CYP11B2.

For the compound `Cc1ccncc1C(=O)N1CC2(C1)CN(c1cncc(N3C(=O)c4ccc(Cl)cc4C3(C)C)c1)C2` [Example 7, 5-Chloro-3,3-dimethyl-2-[5-[2-(4-methylpyridine-3-carbonyl)-2,6-diazaspiro[3.3]heptan-6-yl]-3-pyridyl]isoindolin-1-one], the EC50 is 25700 pM at human CYP11B1 and 13.8 pM at human CYP11B2.

In the case of `Cc1ncc(C(=O)N2CC3(C2)CN(c2cncc(N4C(=O)c5ccc(Cl)cc5C4(C)C)c2)C3)o1` [Example 43, 5-Chloro-3,3-dimethyl-2-[5-[2-(2-methyloxazole-5-carbonyl)-2,6-diazaspiro[3.3]heptan-6-yl]-3-pyridyl]isoindolin-1-one], the figures for the EC50 on human CYP11B1 and at human CYP11B2 were 18000 pM and 18 pM, respectively.

With `CC(C)n1cc(C(=O)N2CC3(C2)CN(c2cncc(N4C(=O)c5ccc(C#N)cc5C4(C)C)c2)C3)cn1` [Example 10, 2-[5-[2-(1-Isopropylpyrazole-4-carbonyl)-2,6-diazaspiro[3.3]heptan-6-yl]-3-pyridyl]-3,3-dimethyl-1-oxo-isoindoline-5-carbonitrile], the figures for the EC50 at human CYP11B1 and on human CYP11B2 were 25600 pM and 15.5 pM, respectively.

Consider `Cc1ccncc1C(=O)N1CCC2(CC1)CN(c1cncc(N3C(=O)c4ccc(Cl)cc4C3(C)C)c1)C2` [Example 57, 5-Chloro-3,3-dimethyl-2-[5-[7-(4-methylpyridine-3-carbonyl)-2,7-diazaspiro[3.5]nonan-2-yl]-3-pyridyl]isoindolin-1-one], for which the results for the EC50 at human CYP11B1 and at human CYP11B2 were 9720 pM and 49 pM, respectively.

Take `CC1(C)c2cc(Cl)ccc2C(=O)N1c1cncc(N2CC3(CN(C(=O)c4ncccn4)C3)C2)c1` [Example 33, 5-Chloro-3,3-dimethyl-2-[5-[2-(pyrimidine-2-carbonyl)-2,6-diazaspiro[3.3]heptan-6-yl]-3-pyridyl]isoindolin-1-one]: the EC50 at human CYP11B1 was found to be 1750 pM; at human CYP11B2 it was 49.7 pM.

As to `Cc1nocc1C(=O)N1CC2(C1)CN(c1cncc(N3C(=O)c4ccc(Cl)cc4C3(C)C)c1)C2` [Example 27, 5-Chloro-3,3-dimethyl-2-[5-[2-(3-methylisoxazole-4-carbonyl)-2,6-diazaspiro[3.3]heptan-6-yl]-3-pyridyl]isoindolin-1-one], the EC50 amounted to 14000 pM on human CYP11B1 and 104 pM at human CYP11B2.

As to `Cc1ocnc1C(=O)N1CC2(C1)CN(c1cncc(N3C(=O)c4ccc(Cl)cc4C3(C)C)c1)C2` [Example 32, 5-Chloro-3,3-dimethyl-2-[5-[2-(5-methyloxazole-4-carbonyl)-2,6-diazaspiro[3.3]heptan-6-yl]-3-pyridyl]isoindolin-1-one], the figures for the EC50 at human CYP11B1 and on human CYP11B2 were 5370 pM and 14.9 pM, respectively.

In the case of `Cn1cc(C(=O)N2CC3(C2)CN(c2cncc(N4C(=O)c5ccc(C#N)cc5C4(C)C)c2)C3)cn1` [Example 8, 3,3-Dimethyl-2-[5-[2-(1-methylpyrazole-4-carbonyl)-2,6-diazaspiro[3.3]heptan-6-yl]-3-pyridyl]-1-oxo-isoindoline-5-carbonitrile], the EC50 was above 30000 pM at human CYP11B1 and 112 pM at human CYP11B2.

Consider `COc1nccnc1C(=O)N1CC2(C1)CN(c1cncc(N3C(=O)c4ccc(Cl)cc4C3(C)C)c1)C2` [Example 37, 5-Chloro-2-[5-[2-(3-methoxypyrazine-2-carbonyl)-2,6-diazaspiro[3.3]heptan-6-yl]-3-pyridyl]-3,3-dimethyl-isoindolin-1-one], for which the EC50 on human CYP11B1 was 16100 pM; on human CYP11B2 it was 75.4 pM.

On to `CC1(C)c2cc(Cl)ccc2C(=O)N1c1cncc(N2CC3(CN(C(=O)c4cnccc4C#N)C3)C2)c1` [Example 50, 3-[6-[5-(6-Chloro-1,1-dimethyl-3-oxo-isoindolin-2-yl)-3-pyridyl]-2,6-diazaspiro[3.3]heptane-2-carbonyl]pyridine-4-carbonitrile], for which the figures for the EC50 on human CYP11B1 and on human CYP11B2 were 16800 pM and 24.8 pM, respectively.

Consider `Cc1cncc(C(=O)N2CC3(C2)CN(c2cncc(N4C(=O)c5ccc(Cl)cc5C4(C)C)c2)C3)n1` [Example 28, 5-Chloro-3,3-dimethyl-2-[5-[2-(6-methylpyrazine-2-carbonyl)-2,6-diazaspiro[3.3]heptan-6-yl]-3-pyridyl]isoindolin-1-one], for which the EC50 at human CYP11B1 is 640 pM; at human CYP11B2, 57.7 pM.

On to `Cc1cnc(C(=O)N2CC3(C2)CN(c2cncc(N4C(=O)c5ccc(Cl)cc5C4(C)C)c2)C3)nc1` [Example 34, 5-Chloro-3,3-dimethyl-2-[5-[2-(5-methylpyrimidine-2-carbonyl)-2,6-diazaspiro[3.3]heptan-6-yl]-3-pyridyl]isoindolin-1-one], for which the EC50 at human CYP11B1 was 9550 pM; on human CYP11B2, 97 pM.

Consider `Cc1oncc1C(=O)N1CC2(C1)CN(c1cncc(N3C(=O)c4ccc(Cl)cc4C3(C)C)c1)C2` [Example 39, 5-Chloro-3,3-dimethyl-2-[5-[2-(5-methylisoxazole-4-carbonyl)-2,6-diazaspiro[3.3]heptan-6-yl]-3-pyridyl]isoindolin-1-one], for which the 50% effective concentration (EC50) on human CYP11B1 turned out to be 9680 pM; at human CYP11B2, 28.2 pM.

With `CC1(C)c2cc(Cl)ccc2C(=O)N1c1cncc(N2CC3(CN(C(=O)c4ncccc4C#N)C3)C2)c1` [Example 46, 2-[6-[5-(6-Chloro-1,1-dimethyl-3-oxo-isoindolin-2-yl)-3-pyridyl]-2,6-diazaspiro[3.3]heptane-2-carbonyl]pyridine-3-carbonitrile], the EC50 amounted to 3860 pM on human CYP11B1 and 38.3 pM at human CYP11B2.

As to `Cn1nccc1C(=O)N1CC2(C1)CN(c1cncc(N3C(=O)c4ccc(C#N)cc4C3(C)C)c1)C2` [Example 12, 3,3-Dimethyl-2-[5-[2-(2-methylpyrazole-3-carbonyl)-2,6-diazaspiro[3.3]heptan-6-yl]-3-pyridyl]-1-oxo-isoindoline-5-carbonitrile], the results for the EC50 at human CYP11B1 and on human CYP11B2 were above 30000 pM and 191 pM, respectively.

Regarding `Cn1cc(C(=O)N2CC3(C2)CN(c2cncc(N4C(=O)c5ccc(Cl)cc5C45CC5)c2)C3)cn1` [Example 19, 5′-Chloro-2′-[5-[2-(1-methylpyrazole-4-carbonyl)-2,6-diazaspiro[3.3]heptan-6-yl]-3-pyridyl]spiro[cyclopropane-1,3′-isoindoline]-1′-one], the EC50 on human CYP11B1 came to 7690 pM; at human CYP11B2, 2.9 pM.
